In one assay the test system is Phytophthora infestans. Description: whole plant or invertebrate. The class given is in vivo. The following applies: for pest or weed control at 100 ppm / pest or weed control at 200 ppm: Phytophthora infestans, in Solanum lycopersicum, 96 h; for pest or weed control at 100 ppm: read-out: % Control TLB, application rate 100 ppm.
Assay [1] concerns Puccinia recondita (f. sp. tritici Races PKB and PLD). Description: whole plant or invertebrate. The class given is in vivo. The conditions noted are these: for pest or weed control at 100 ppm / pest or weed control at 200 ppm / pest or weed control at 50 ppm: Puccinia recondita, 240 h, read-out: % Control WLR; for % Control WLR: in vivo.
Assay [2] concerns Erysiphe graminis (f. sp. tritici). The assay is described as follows: whole plant or invertebrate. The class given is in vivo.
The subject of assay [3] is Pellicularia filamentosa (f. sp. sasiki). The assay is described as follows: whole plant or invertebrate. The class given is in vivo.
The next assay relates to Pseudomonas fluorescens. The assay is described as follows: Alternate Minimum Inhibitory Concentrations Test (Table 4), Ps.fl. The class given is cell-based. The following applies: Table 4 alternate test, 250 ppm to 0.8 ppm in TSB, 72 hours, 30° C.; for MIC: Pseudomonas fluorescens, read-out: MIC Ps.fl. A digest of the protocol: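 MIC taken as lowest concentration showing no growth after 72 h incubation at 30 °C in TSB. Twofold dilution series spanned 250 down to 0.8 ppm, wells inoculated with phosphate-buffer-diluted 24 h culture.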

The next assay relates to Pythium ultimum. Description: Pythium ultimum in vitro Fungitoxicity Assay in liquid culture. The class given is cell-based, Pythium ultimum (ATCC 26083). The conditions noted are these: Globisporangium ultimum; mycelial dry weight, 48 h at 25° C., shaking at 60 rpm; read-out: EC 50. The protocol: Selected compounds of Examples 1-120 were subjected also to the following in vitro fungitoxicity assay against Pythium ultimum in a liquid culture, with the results as indicated in Table 6.
Pythium ultimum Fungitoxicity Assay
A dilution series of the test compound was prepared in dimethylsulfoxide, and 0.1 ml of each dilution was added to 19.9 ml of a liquid asparagine-sucrose medium (D. C. Erwin and K. Katznelson (1971), Can. J. Microbiol. 7, 15) in 9 cm diameter petri dishes to give the desired final concentrations of test compound. Plates were inoculated with mycelial plugs, 7 mm diameter, taken from the growing edge of 48 h old cultures of Pythium ultimum, (ATCC 26083), grown on potato dextrose agar. Two replicate plates were used for each treatment. The increase in mycelial dry weight was determined after growth for 48 h at 25° C. with shaking at 60 rpm. EC50 values were calculated from dose response curves.

For another assay, the system named is Piricularia oryzae. Description: whole plant or invertebrate. The conditions noted are these: for pest or weed control at 200 ppm / pest or weed control at 50 ppm: Pyricularia oryzae; for pest or weed control at 50 ppm: read-out: % Control RB, application rate 50 ppm. The class given is in vivo.
Assay [4] has as its system Pseudoperonospora cubensis. Description: whole plant or invertebrate. The class given is in vivo.
Assay [5] has as its system Puccinia graminis (f. sp. tritici Race 15B-2). Description: whole plant or invertebrate. The class given is in vivo.
[6] abbreviates: Blumeria graminis, read-out: % Control WPM.
The mark [7] stands for this setting: read-out: % Control TLB, application rate 200 ppm.
Where [8] appears, read: read-out: % Control RB, application rate 200 ppm.
[9] abbreviates: Pseudoperonospora cubensis, in Cucumis sativus, 168 h, read-out: % Control CDM.
Setting [10] is: Puccinia graminis, 336 h, read-out: % Control WSR.

The values below come from patent publication US5300672A (priority 1992, dated 1994).

≈ marks a conversion by molar mass, not a printed value. Like-named read-outs stand apart in the source and are kept apart here.

In the case of `CCCCCCCCNC(=O)/C=C\SCn1cncn1` [Compound 7, N-octyl-cis-3-[1-(1,2,4-triazoyl)methylthio]acrylamide], the pest or weed control at 100 ppm (in the assay with Phytophthora infestans; in [1]; in assay [2] (setting [6])) was 0% throughout. For the same compound, in assay [3] (120 h, read-out: % Control RSB), the pest or weed control at 6 ppm was found to be 50%. Moreover, the MIC (usually the smallest concentration in the dilution series that meets the test's criterion for growth inhibition) with Pseudomonas fluorescens is above 250 µg/mL. Also, the EC50 in the assay on Pythium ultimum amounted to 50 µg/mL (≈ 169 µM).

Consider `CCCCCCCCNC(=O)/C=C\SC(=O)c1ccc(N=C=S)cc1` [Compound 48, N-octyl-cis-3-[(4-isothiocyanobenzoyl)thio]acrylamide], for which, in the assay on Phytophthora infestans, the pest or weed control at 100 ppm is 0%. For the same compound, the MIC in the assay on Pseudomonas fluorescens was above 250 µg/mL. The EC50 in the assay on Pythium ultimum is 8.2 µg/mL (≈ 21.8 µM).

For `CCCCCCCCNC(=O)/C=C\SC(=O)c1ccc(Br)cn1` [Compound 53, N-octyl-cis-3-[(5-bromo-2-pyridine)carbonylthio]acrylamide], the pest or weed control at 100 ppm with Phytophthora infestans turned out to be 0%; in assay [1], 0%; in assay [2] (setting [6]), 0%; in assay [3] (120 h, read-out: % Control RSB), 0%. For the same compound, the MIC in the assay on Pseudomonas fluorescens was above 250 µg/mL. Besides, in the assay with Pythium ultimum, the EC50 came to 10.2 µg/mL (≈ 25.5 µM).

In the case of `CCCCCCCCNC(=O)/C=C\SC(=O)c1cccn1C` [Compound 61, N-octyl-cis-3-[(1-methyl-2-pyrrole)carbonylthio]acrylamide], the pest or weed control at 200 ppm in the assay on Phytophthora infestans (setting [7]) is 0%; in the assay on Piricularia oryzae (setting [8]) it was 0%; in assay [1] it was 0%; in [2] (setting [6]), 0%; in assay [3] (120 h, read-out: % Control RSB), 0%. Besides, the minimal inhibitory concentration (MIC) with Pseudomonas fluorescens is above 250 µg/mL. For the same compound, in the assay on Pythium ultimum, the EC50 was 59.5 µg/mL (≈ 185 µM).

In the case of `CCCCCCCCNC(=O)/C=C\SC(=O)/C=C/c1ccco1` [Compound 68, N-octyl-cis-3-[(trans-3-(2-furan)propenoyl)thio]acrylamide], the pest or weed control at 200 ppm in the assay on Phytophthora infestans (read-out: % Control TLB) was found to be 90%; in assay [1], 0%; in assay [2] (setting [6]), 0%; in [3] (120 h, read-out: % Control RSB), 0%; in [5] (setting [10]) it was 90%. In the assay with Piricularia oryzae, the pest or weed control at 50 ppm was 80%. Further, the MIC in the assay on Pseudomonas fluorescens is above 250 µg/mL. The pest or weed control at 12 ppm in assay [4] (setting [9]) is 70%.

As for `CCCCCCCCNC(=O)/C=C\SC(=O)CCc1ccccc1` [Compound 69, N-octyl-cis-3-[(3-phenylpropanoyl)thio]acrylamide], the pest or weed control at 200 ppm amounted to 100% in the assay with Phytophthora infestans (setting [7]); 80% in the assay on Piricularia oryzae (setting [8]); 0% in assay [2] (setting [6]); 0% in assay [3] (120 h, read-out: % Control RSB); 75% in [5] (setting [10]). In addition, the “% Control WLR” value in assay [1] stood at 0 % Control. Further, in the assay with Pseudomonas fluorescens, the minimum inhibitory concentration (MIC) was above 250 µg/mL. Moreover, in [4] (setting [9]), the pest or weed control at 50 ppm was 85%.

As to `CCCCCCCCNC(=O)/C=C\SC(=O)/C=C/c1ccc(C(F)(F)F)cc1` [Compound 70, N-octyl-cis-3-[(trans-3-(4-(trifluoromethyl)phenyl)propenoyl)thio]acrylamide], the pest or weed control at 200 ppm in the assay on Phytophthora infestans (setting [7]) was determined as 0%; with Piricularia oryzae (setting [8]), 50%; in assay [1] it was 0%; in assay [2] (setting [6]), 0%; in assay [3] (120 h, read-out: % Control RSB), 0%. Further, the MIC in the assay on Pseudomonas fluorescens is above 250 µg/mL. In the assay with Pythium ultimum, the EC50 came out at 5 µg/mL (≈ 12.1 µM).

Turning to `CCCCCCCCNC(=O)/C=C\SC(=O)CCCc1ccccc1` [Compound 80, N-octyl-cis-3-[(4-phenylbutanoyl)thio]acrylamide], the pest or weed control at 200 ppm worked out at 100% in the assay on Phytophthora infestans (setting [7]); 50% in the assay with Piricularia oryzae (setting [8]); 0% in [1]; 0% in [2] (setting [6]); 50% in assay [3] (120 h, read-out: % Control RSB); 75% in [5] (setting [10]). Besides, in the assay with Pseudomonas fluorescens, the minimal inhibitory concentration (MIC) was above 250 µg/mL. The pest or weed control at 50 ppm in assay [4] (setting [9]) was found to be 85%.

For `CCCCCCCCNC(=O)/C=C\SC(=O)/C(=C/c1ccccc1)c1ccccc1` [Compound 82, N-octyl-cis-3-[(cis-2,3-diphenylpropenoyl)thio]acrylamide], the pest or weed control at 200 ppm in the assay with Phytophthora infestans (setting [7]) was 0%; in the assay with Piricularia oryzae (setting [8]), 90%; in [2] (setting [6]), 0%; in assay [3] (120 h, read-out: % Control RSB) it was 0%; in assay [4] (setting [9]) it was 0%. Besides, in assay [1], the pest or weed control at 50 ppm was determined as 50%. For the same compound, the minimal inhibitory concentration (MIC) in the assay on Pseudomonas fluorescens is above 250 µg/mL. For the same compound, the pest or weed control at 100 ppm in [5] (setting [10]) came to 50%.

As to `CCCCCC#CC(=O)S/C=C\C(=O)NCCCCCCCC` [Compound 86, N-octyl-cis-3-[(2-octynoyl)thio]acrylamide], the pest or weed control at 200 ppm amounted to 90% in the assay on Phytophthora infestans (read-out: % Control TLB); 0% in the assay on Piricularia oryzae (setting [8]); 50% in assay [1]; 0% in assay [2] (setting [6]); 0% in [3] (120 h, read-out: % Control RSB); 85% in assay [4] (setting [9]). The minimal inhibitory concentration (MIC) with Pseudomonas fluorescens was above 250 µg/mL. In addition, the pest or weed control at 100 ppm in [5] (setting [10]) was determined as 0%.

Regarding `CCCCCCCCNC(=O)/C=C\SC(=O)COC` [Compound 87, N-octyl-cis-3-(methoxyacetylthio)acrylamide], the pest or weed control at 200 ppm in the assay with Phytophthora infestans (read-out: % Control TLB) amounted to 90%; in the assay on Piricularia oryzae (read-out: % Control RB), 95%; in assay [1] it was 80%; in assay [3] (120 h, read-out: % Control RSB), 0%; in [4] (setting [9]) it was 100%. Further, the pest or weed control at 12 ppm in assay [2] (setting [6]) was determined as 50%. Further, the MIC in the assay with Pseudomonas fluorescens was above 250 µg/mL. In addition, the pest or weed control at 10 ppm in [5] (setting [10]) came out at 50%.

Turning to `CCCCCCCCNC(=O)/C=C\SC(=O)C1=CC(=O)CC(C)(C)O1` [Compound 89, N-octyl-cis-3-[(3,4-dihydro-2,2-dimethyl-4-oxo-2H-pyran-6-carbonyl)thio]acrylamide], the pest or weed control at 200 ppm with Phytophthora infestans (read-out: % Control TLB) turned out to be 90%; in the assay on Piricularia oryzae (read-out: % Control RB), 95%; in assay [1], 90%; in assay [2] (setting [6]), 0%; in [3] (120 h, read-out: % Control RSB), 0%; in assay [4] (setting [9]), 70%. Moreover, in the assay on Pseudomonas fluorescens, the MIC is above 250 µg/mL. Moreover, the pest or weed control at 100 ppm in [5] (setting [10]) came to 80%.

Turning to `CCCCCCCCNC(=O)/C=C\SC(=O)CC1C=CCC1` (stereo not drawn) [Compound 93], the pest or weed control at 200 ppm is 90% in the assay with Phytophthora infestans (read-out: % Control TLB); 50% in assay [1]; 75% in [2] (setting [6]); 0% in assay [3] (120 h, read-out: % Control RSB); 99% in assay [4] (setting [9]). For the same compound, the pest or weed control at 50 ppm with Piricularia oryzae was found to be 90%. Also, in the assay on Pseudomonas fluorescens, the minimal inhibitory concentration (MIC) was above 250 µg/mL. For the same compound, in assay [5] (setting [10]), the pest or weed control at 100 ppm came to 50%.

As to `CCCCCCCCNC(=O)/C=C\SC(=O)/C=C/c1ccc([N+](=O)[O-])cc1` [Compound 96, N-octyl-cis-3-[(trans-3-(4-nitrophenyl)propenoyl)thio]acrylamide], the pest or weed control at 200 ppm is 0% in the assay with Phytophthora infestans (setting [7]); 95% in the assay on Piricularia oryzae (read-out: % Control RB); 75% in [2] (setting [6]); 50% in assay [3] (120 h, read-out: % Control RSB); 95% in [4] (setting [9]). In addition, the pest or weed control at 50 ppm in assay [1] is 0%. Moreover, the minimum inhibitory concentration (MIC) in the assay with Pseudomonas fluorescens was above 250 µg/mL. In [5] (setting [10]), the pest or weed control at 100 ppm came out at 0%.

Take `CCCCCCCCNC(=O)/C=C\SC(=O)c1cccc(OC)c1[N+](=O)[O-]` [Compound 98, N-octyl-cis-3-[(2-nitro-3-methoxybenzoyl)thio]acrylamide]: the pest or weed control at 200 ppm in the assay on Phytophthora infestans (read-out: % Control TLB) was found to be 90%; in the assay on Piricularia oryzae (read-out: % Control RB) it was 99%; in assay [1], 50%; in assay [3] (120 h, read-out: % Control RSB), 0%; in assay [4] (setting [9]), 50%. For the same compound, the pest or weed control at 50 ppm in [2] (setting [6]) amounted to 0%. For the same compound, the minimum inhibitory concentration (MIC) in the assay with Pseudomonas fluorescens is above 250 µg/mL. In addition, the pest or weed control at 100 ppm in assay [5] (setting [10]) was found to be 0%.

As for “N-octyl-cis-3-[(2-butenoyl)thio]acrylamide [Compound 20]”, in the assay on Phytophthora infestans (application rate 6 ppm), the “% Control TLB” value was found to be 95 % Control. In addition, in the assay on Piricularia oryzae (in vivo), the “% Control RB” value was found to be 50 % Control. Besides, in [1], the “% Control WLR” value was 0 % Control. Besides, the “% Control WPM” value in assay [2] (in vivo) came out at 0 % Control. In [3] (in vivo), the “% Control RSB” value was determined as 0 % Control. Moreover, in the assay on Pseudomonas fluorescens, the “MIC Ps.fl” value was above 250 Ppm. The “% Control CDM” value in [4] (in vivo) turned out to be 85 % Control. Also, the “% Control WSR” value in assay [5] (application rate 200 ppm) is on record as 75 % Control.
